The assay concerns ACE-2. In words: ACE-2 surface protein in Calu-3 cells, flow cytometry. The format is cell-based, human. The settings on record: Calu-3, 100, 500 and 1000 µM, less than L-carnitine. As for the experimental part: ACE-2 surface expression protein in Calu-3 cells was evaluated using FACS flow cytometry sorting. […] Cells were detached with PBS/EDTA at room temperature. FBS-containing growth media was added to cells to inactivate TE. Cells were spun for 5 min at […]. Supernatant was removed and cells were washed twice in flow buffer (PBS+0.2% FBS). Between 100,000-200,000 cells were stained for ACE-2 and BST2 (absent in Calu-3and used as a control) for 30 min on ice using goat anti-ACE-2 (R&D Systems; AF933) and PE-conjugated BST2 (BioLegend; Cat # 348406). Cells were washed once and stained with Alexa Fluor 647 donkey anti-goat for 30 min on ice. Cells were washed once, resuspended in PBS/EDTA and samples were acquired on a FACS LSR Fortessa cytometer (BD Bioscience). Data were analyzed using Flowjo (Version 10.1).
The testing was repeated with D-Carnitine as well. Cells were either stained for ACE2 using either anti-ACE2 Ab, anti-BST2 Ab or the combination or both followed by secondary Ab isotype. […] The table represents the fluorescence counts.

`C[N+](C)(C)C[C@@H](O)CC(=O)[O-]` [D-carnitine]: the “ACE-2 surface protein levels” value was “decreased significantly”.

Source of the values: patent US20230346735A1, “Nutritional Composition Comprising Carnitine and Method for Treating or Preventing an Infection in a Mammal” (priority 2020, published 2023).
